# From US10265329B2, “Altering steroid metabolism for treatment of steroid-dependent disease” (THE CLEVELAND CLINIC FOUNDATION, priority 2015, dated 2019)
# Assays:
# CYP17A1 = molecular target: T1, CYP17A1 (Homo sapiens, UniProt P05093); experiment: Conversion of [3H]-pregnenolone to DHEA in 293 cells expressing CYP17A1; type: cell-based; settings: 1 nM drug; 3 h incubation; vehicle 70.1%
# T1 construct: expressed in transfected cells
# T1 sequence (P05093 1-508): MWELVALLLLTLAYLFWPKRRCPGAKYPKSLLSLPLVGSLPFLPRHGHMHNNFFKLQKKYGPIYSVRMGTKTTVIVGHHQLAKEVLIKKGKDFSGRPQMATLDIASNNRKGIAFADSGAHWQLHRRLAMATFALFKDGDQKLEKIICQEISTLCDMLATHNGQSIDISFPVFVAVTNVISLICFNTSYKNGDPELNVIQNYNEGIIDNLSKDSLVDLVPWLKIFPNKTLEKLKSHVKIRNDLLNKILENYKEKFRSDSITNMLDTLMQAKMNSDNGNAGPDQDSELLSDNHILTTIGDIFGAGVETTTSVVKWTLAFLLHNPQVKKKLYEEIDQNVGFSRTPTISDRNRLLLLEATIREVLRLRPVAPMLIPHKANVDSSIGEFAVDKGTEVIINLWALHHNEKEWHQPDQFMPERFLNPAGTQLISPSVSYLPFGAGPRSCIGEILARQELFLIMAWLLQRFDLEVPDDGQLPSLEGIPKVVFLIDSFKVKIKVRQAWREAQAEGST
# From the text: LNCaP and VCaP cells were purchased from the American Type Culture Collection (Manassas, Va.) and maintained in RPMI-1640 with 10% FBS. LAPC4 cells were kindly provided by Dr. Charles Sawyers (Memorial Sloan Kettering Cancer Center, New York, N.Y.) and grown in Iscove's Modified Dulbecco's Medium with 10% FBS. C4-2 cells were kindly provided by Dr. Leland Chung (Cedars-Sinai Medical Center, Los Angeles, Calif.) and maintained in RPMI-1640 with 10% FBS. All experiments done with LNCaP and VCaP were done in plates coated with poly-DL-ornithine (Sigma-Aldrich, St. Louis, Mo.). A 293 cell line stably expressing human CYP17A1 was generated by transfection with plasmid pcDNA3-CYP17 (a generous gift of Dr. Walter Miller, University of California, San Francisco) and selection with G418. Cell lines was authenticated by DDC Medical (Fairfield, Ohio) and determined to be […] mycoplasma free with primers.
# Cell Line Metabolism: Cells were seeded and incubated in 12-well plates with 0.2 million cells/well for ˜24 h and then incubated with a mixture of radioactive ([^3H]-labeled) and non-radioactive androgens (final concentration, 100 nM; ˜1,000,000 cpm/well; PerkinElmer, Waltham, Mass.) at 37° C. Aliquots of medium were collected at the indicated times. Collected medium was treated with 1,000 units of β-glucuronidase (Helix pomatia; Sigma-Aldrich) at 65° C. for 2 h, extracted with 860 μL ethyl acetate:isooctane (1:1), and concentrated under nitrogen gas. Xenograft Metabolism: 10^7 LNCaP or VCaP cells were injected subcutaneously with Matrigel into surgically orchiectomized NSG mice that were implanted with 5 mg 90-day sustained-release DHEA pellets (Innovative Research of American, Sarasota, Fla.). Xenografts were harvested when they reached 1000 mm^3, minced, and cultured in DMEM with 10% FBS at 37° C. with mixture of radioactive ([^3H]-labeled) and non-radioactive androgens, or Abi, when they reached 1000 mm^3. Each xenograft was analyzed in triplicate in at least three independent experiments. Aliquots of medium were collected at the indicated times. […]
# Dried samples were reconstituted in 50% methanol and injected into the HPLC. […] Alternatively, dried samples were applied to plastic-backed silica gel plates and separated by thin-layer chromatography (TLC) using a mobile phase of 3:1 chloroform:ethyl acetate, followed by exposure of the plates to a phosphorimager screen and quantitated with a Storm model 860 phosphorimager (Applied Biosystems, Foster City, Calif.). […]
# Cell lines, drugs and constructs. […] Cell lines were authenticated by DDC Medical (Fairfield, Ohio) and determined to be mycoplasma free with primers. […]
# [1] = patients; wide interpatient variability; cited from earlier work
# [2] = Phase II clinical trial NCT01393730: serum Abi metabolites before and after dutasteride; type: in vivo, human
# Description: Twelve patients with CRPC undergoing treatment with Abi acetate at Cleveland Clinic were consented under an Institutional Review Board—approved protocol (Case 7813). Blood was collected using Vacutainer Plus serum blood collection tubes (#BD367814, Becton Dickenson, Franklin Lakes, N.J.), between 1 and 16 hours after the 1000 mg daily dose of Abi acetate was administered, and allowed to clot. Tubes were centrifuged at 2500 RPM or 1430×g for 10 minutes. Serum aliquots were frozen at −80° C. until processing. To study the effect of dutasteride on Abi metabolism, serum samples were collected from patients treated on a phase II clinical trial at Dana-Farber Cancer Institute (NCT01393730). Each patient received Abi acetate (1,000 mg daily) plus prednisone (5 mg daily) for 2 cycles (8 weeks) and then additional treatment with dutasteride ([…]) was initiated. Samples were collected on treatment with Abi alone and after addition of dutasteride (start of cycles 3, 4 and 7). Seventeen patients treated at this institution on this clinical trial had blood available from all 3 time points. One patient had Abi concentrations that were under the limit of detection and was later determine to have stopped treatment because of adverse effects and was therefore not included in the analysis. Drug metabolites and internal standard (d4-abiraterone, Toronto Research Chemicals Inc, Ontario Canada) were extracted from 100 μL of patient serum with methyl tert-butyl ether (Sigma Aldrich, St. Louis, Mo.), evaporated under a stream of nitrogen gas and reconstituted in methanol:water (50:50) prior to mass spectrometry analysis. Standard curves were generated using human serum spiked with known concentrations of each metabolite to enable determination of unknown concentrations in patient samples
# Samples were analyzed on a ultra high-performance liquid chromatography station (Shimadzu, Kyoto, Japan) with a DGU-20A3R degasser, 2 LC-30AD pumps, a SIL-30AC autosampler, a CTO-10A column oven and a CBM-20A system controller in tandem with a QTRAP 5500 mass spectrometer (AB Sciex, Framingham, Mass.). Drug metabolites were ionized using electrospray ionization in positive ion mode. Multiple reaction monitoring was used to follow mass transitions for Abi, IS, and the metabolites (Table 1). Due to the similarity in structure and mass transitions for the metabolites it was necessary to separate them with chromatography. Separation of drug metabolites was achieved using a mobile phase consisting of LC-MS grade (Fisher) methanol: acetonitrile: water:formic acid (39:26:34:1) at a flow rate of 0.2 ml/min., and C18 analytical column; Zorbax Eclipse plus 150×2.1 mm, 3.5 μm (Agilent, Santa Clara, Calif.).
# SRD5A1 = molecular target: T2, SRD5A1 (Homo sapiens, UniProt P18405); settings: LAPC4 cells
# T2 sequence (P18405 1-259): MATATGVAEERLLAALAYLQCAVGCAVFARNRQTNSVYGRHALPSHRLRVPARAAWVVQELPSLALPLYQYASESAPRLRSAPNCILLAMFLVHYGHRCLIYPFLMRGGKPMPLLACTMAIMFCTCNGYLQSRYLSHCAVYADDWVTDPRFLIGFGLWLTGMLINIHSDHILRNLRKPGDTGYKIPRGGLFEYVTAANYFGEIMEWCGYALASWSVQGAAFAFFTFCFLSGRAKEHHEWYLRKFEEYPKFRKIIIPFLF
# Description: Cell Line Metabolism: 0.2 million/ml cells were seeded and incubated in 12-well plates for ˜24 h before incubation with the indicated drugs or a mixture of [^3H]-labeled (˜1,000,000 cpm/well; PerkinElmer, Waltham, Mass.) and non-radioactive androgens (final concentration, 100 nM) at 37° C. Collected medium was treated with β-glucuronidase (Helix pomatia; Sigma-Aldrich), extracted with ethyl acetate:isooctane (1:1), and concentrated under nitrogen gas as described.
# Dried samples were reconstituted in 50% methanol and separated on Kinetex 100×2.1 mm, 2.6 μm particle size C18 reverse-phase column (Phenomenex, Torrance, Calif.) using a methanol/water gradient at 30° C. The column effluent was analyzed using a 254 nm UV-visible detector or β-RAM model 3 in-line radioactivity detector (IN/US Systems, Inc.) using Liquiscint scintillation cocktail (National Diagnostics, Atlanta, Ga.). All HPLC studies were conducted in triplicate and repeated at least 3 times in independent experiments. Results are shown as mean±SD.
# LNCaP cells = experiment: Cell proliferation assay, DHT-stimulated growth; type: cell-based, human; settings: DHT 0.5 nM, 2, 4 and 6 days
# Description: LNCaP cells (0.1 million/mL) were seeded in 96-well plates and cultured in phenol red free RPMI-1640 mediums plus 10% charcoal stripped FBS with androgens and/or drugs. Medium was changed every other day. After 2, 4 or 6 days, cells were collected and lysed after treatment. Growth was then determined based on DNA content as detected by Hoechst stain and a Wallac Victor2 1420 Multilabel counter (Perkin Elmer). Two-tailed student's t-test was used to determine significance.
# SRD5A = molecular target: T3, SRD5A (Homo sapiens, UniProt P18405); experiment: Conversion of [3H]-AD to 5α-reduced androgens in LAPC4 cells; type: cell-based; settings: up to 100 μM; LAPC4 cells
# T3 construct: endogenous in cells; host or cells: LAPC4
# T3 sequence (P18405 1-259): T2 sequence (P18405 1-259)
# Description: Cell Line Metabolism: Cells were seeded and incubated in 12-well plates with 0.2 million cells/well for ˜24 h and then incubated with a mixture of radioactive ([^3H]-labeled) and non-radioactive androgens (final concentration, 100 nM; ˜1,000,000 cpm/well; PerkinElmer, Waltham, Mass.) at 37° C. Aliquots of medium were collected at the indicated times. Collected medium was treated with 1,000 units of β-glucuronidase (Helix pomatia; Sigma-Aldrich) at 65° C. for 2 h, extracted with 860 μL ethyl acetate:isooctane (1:1), and concentrated under nitrogen gas. Xenograft Metabolism: 10^7 LNCaP or VCaP cells were injected subcutaneously with Matrigel into surgically orchiectomized NSG mice that were implanted with 5 mg 90-day sustained-release DHEA pellets (Innovative Research of American, Sarasota, Fla.). Xenografts were harvested when they reached 1000 mm^3, minced, and cultured in DMEM with 10% FBS at 37° C. with mixture of radioactive ([^3H]-labeled) and non-radioactive androgens, or Abi, when they reached 1000 mm^3. Each xenograft was analyzed in triplicate in at least three independent experiments. Aliquots of medium were collected at the indicated times. Collected medium was treated with 1,000 units of β-glucuronidase at 65° C. for 2 h, extracted with 860 μL ethyl acetate:isooctane (1:1), and concentrated under nitrogen gas.
# Dried samples were reconstituted in 50% methanol and injected into the HPLC. Steroids and drug metabolites were separated on Kinetex 100×2.1 mm, 2.6 μm particle size C18 reverse-phase column (Phenomenex, Torrance, Calif.) using a methanol/water gradient at 30° C. […] Alternatively, dried samples were applied to plastic-backed silica gel plates and separated by thin-layer chromatography (TLC) using a mobile phase of 3:1 chloroform:ethyl acetate, followed by exposure of the plates to a phosphorimager screen and quantitated with a Storm model 860 phosphorimager (Applied Biosystems, Foster City, Calif.). […] Results are shown as mean±SD.
# Collected medium was treated with β-glucuronidase (Helix pomatia; Sigma-Aldrich), extracted with ethyl acetate:isooctane (1:1), and concentrated under nitrogen gas as described. Li et al., 523, 347-351 (2015).
# Dried samples were reconstituted in 50% methanol and separated on Kinetex 100×2.1 mm, 2.6 μm particle size C18 reverse-phase column (Phenomenex, Torrance, Calif.) using a methanol/water gradient at 30° C. […] Results are shown as mean±SD.
smiles,measurement,setting,value
"C[C@]12CC[C@H](O)CC1=CC[C@@H]1[C@@H]2CC[C@]2(C)C(c3cccnc3)=CC[C@@H]12 [Abi, Abiraterone, reference compound]",% conversion to DHEA,CYP17A1,2.6%
same,Cmax,[1],~1000 nM
same,"mean serum concentration, cycle 3","[2]; Abi acetate 1000 mg daily plus prednisone alone, 16 patients",191.2 nM
same,"mean serum concentration, cycle 4","[2]; after addition of dutasteride 3.5 mg once daily, 16 patients",372.4 nM
"C[C@]12CC[C@H](O)C[C@@H]1CC[C@@H]1[C@@H]2CC[C@]2(C)C(c3cccnc3)=CC[C@@H]12 [Compound 3β-OH-5α-Abi, 17-(3-pyridyl)-5α-androsta-16-ene-3β-ol]",decline in mean serum concentration after the addition of dutasteride,[2]; cycle 3 vs. cycle 4,73%
CN1C(=O)CC[C@@H]2c3ccc(Cl)cc3CC[C@H]21 [LY191704],block of conversion of D4A to 5α-Abi and 3α-OH-5α-Abi,SRD5A1,blocks conversion
C[C@]12C=CC(=O)N[C@@H]1CC[C@@H]1[C@@H]2CC[C@]2(C)[C@@H](C(=O)Nc3cc(C(F)(F)F)ccc3C(F)(F)F)CC[C@@H]12 [dutasteride],block of conversion of D4A to 5α-Abi and 3α-OH-5α-Abi,SRD5A1,blocks conversion
"CNC(=O)c1ccc(N2C(=S)N(c3ccc(C#N)c(C(F)(F)F)c3)C(=O)C2(C)C)cc1F [enzalutamide, reference compound]",effect on DHT-stimulated cell growth,LNCaP cells,more potent than Abi
same,effect on conversion from AD to 5α-reduced androgens,SRD5A,no detectable effect
